Patent US9587471B2, “Controlling bioavailability of nutrient additions in subsurface formations” (E I DU PONT DE NEMOURS AND COMPANY, priority 2008, dated 2017)

Key:
[1] = tested on: Pseudomonas stutzeri strain LH4:15, ATCC PTA-8823; assay: Aerobic growth response (turbidity) to varying concentrations of potential microbial nutrients; assay type: cell-based; details: for concentration at which microbial growth was inhibited: aerobic growth at 30° C. As to growth response (turbidity): key: − = no turbidity; + = slight turbidity; ++ = moderate to heavy turbidity.
Protocol: Typically cells were grown at a temperature in the range of about 25° C. to about 40° C. in an appropriate medium.
Additional potential microbial nutrients were added at various concentrations as outlined in Table 1. Growth was monitored visually with positive growth indicated by moderate to heavy turbidity.

[2] = tested on: Pseudomonas stutzeri strain LH4:15 (ATCC PTA-8823); assay: Anaerobic growth and survival: biocidal versus biostatic inhibition; assay type: cell-based; details: for change in Log cell number: day 0 vs day 7, anaerobic; for Final anaerobic vial OD: starting OD600 = 0.05
Protocol: In this invention, the anaerobic growth and survival was tested in 20 ml crimp-capped anaerobic vials, using a complete nutrient medium of the following composition: Na2HPO4.7H2O, 1.4 g/L, KH2PO4, 0.69 g/L, NH4Cl, 0.5 g/L, MgSO4.7H2O, 0.1/L g, SL-10 trace metals, 10 ml, NaCl, 7.5 g/L, NaHCO3, 7.2 g/L, sodium nitrate, 12 g/L, Na lactate, 7 g/L, yeast extract, 10 mg/L, pH 7.3-7.8.
The anaerobic growth and survival was tested as outlined above. […] Vials were inoculated using an overnight aerobic culture of Pseudomonas stutzeri strain LH4:15 (ATCC PTA-8823) in Luria Bertani medium (LB, Mediatech Inc., Herndon, Va.,) at a final OD600 of 0.05. Within 2 hours of inoculation, serial dilutions from each treatment vial were made into aerobic LB medium to determine the cell numbers at Day 0. After approximately 24 hours cell numbers were estimated by noting the highest positive dilution based on the presence or absence of turbidity in dilutions of 10^−1 to 10^−11 in the serial dilution plates. Cell numbers on Day 0 and Day 7 were measured to obtain a survival estimate during inhibitor exposure.

[3] = 10 g/L, 120 hours of incubation
[4] = 20 g/L, 120 hours of incubation
[5] = 50 g/L, 120 hours of incubation
[6] = 100 g/L, 24 hours of incubation
[7] = 100 g/L, 48 hours of incubation
[8] = 100 g/L, 120 hours of incubation
[9] = 200 g/L, 24 hours of incubation
[10] = 200 g/L, 48 hours of incubation
[11] = 200 g/L, 120 hours of incubation

Compound | Growth response (turbidity) ([1]; 10 g/L, 24 hours of incubation) | Growth response (turbidity) ([1]; 10 g/L, 48 hours of incubation) | Growth response (turbidity) [1, 3] | Growth response (turbidity) ([1]; 20 g/L, 24 hours of incubation) | Growth response (turbidity) ([1]; 20 g/L, 48 hours of incubation) | Growth response (turbidity) [1, 4] | Growth response (turbidity) ([1]; 50 g/L, 24 hours of incubation) | Growth response (turbidity) ([1]; 50 g/L, 48 hours of incubation) | Growth response (turbidity) [1, 5] | Growth response (turbidity) [1, 6] | Growth response (turbidity) [1, 7] | Growth response (turbidity) [1, 8] | Growth response (turbidity) [1, 9] | Growth response (turbidity) [1, 10] | Growth response (turbidity) [1, 11] | change in Log cell number ([2]; 50 g/L) | Final anaerobic vial OD ([2]; 50 g/L) | change in Log cell number ([2]; 100 g/L) | Final anaerobic vial OD ([2]; 100 g/L) | change in Log cell number ([2]; 200 g/L) | also measured
O=[N+]([O-])[O-].[Na+] [NaNO3, sodium nitrate] | ++ | ++ | ++ | ++ | ++ | ++ | − | + | ++ | − | − | − | − | − | − | −1 | 0.06 | −2 | 0.02 | −6 | concentration at which microbial growth was inhibited [1]: ≥ 100 g/L; change in Log cell number ([2]; 80 g/L): 0; Final anaerobic vial OD ([2]; 80 g/L): 0.03; Final anaerobic vial OD ([2]; 200 g/L): 0.03; change in Log cell number ([2]; 400 g/L): −5; Final anaerobic vial OD ([2]; 400 g/L): 0.03
[Cl-].[Na+] [NaCl] |  |  |  |  |  |  |  |  |  |  |  |  |  |  |  | −1 | 0.08 | −1 | 0.05 | −2 | change in Log cell number ([2]; 80 g/L): −3; Final anaerobic vial OD ([2]; 80 g/L): 0.11; Final anaerobic vial OD ([2]; 200 g/L): 0.03; change in Log cell number ([2]; 400 g/L): −4; Final anaerobic vial OD ([2]; 400 g/L): 0.03
NC(N)=O [Urea] | ++ | ++ | ++ | ++ | ++ | ++ | − | − | − | − | − | − | − | − | − | −1 | 0.03 | −1 | 0.02 | Dead | concentration at which microbial growth was inhibited [1]: ≥ 50 g/L; change in Log cell number ([2]; 20 g/L): −1; Final anaerobic vial OD ([2]; 20 g/L): 0.2; change in Log cell number ([2]; 30 g/L): −1; Final anaerobic vial OD ([2]; 30 g/L): 0.13; Final anaerobic vial OD ([2]; 200 g/L): 0.01; change in Log cell number ([2]; 300 g/L): Dead; Final anaerobic vial OD ([2]; 300 g/L): 0.01
CC(O)C(=O)[O-].[Na+] (stereo not shown) [Na lactate, sodium lactate] | ++ | ++ | ++ | ++ | ++ | ++ | − | − | − | − | − | − | − | − | − |  |  |  |  |  | 
OCCO [Ethylene glycol] | ++ | ++ | ++ | ++ | ++ | ++ | ++ | ++ | ++ | + | ++ | ++ | − | − | − |  |  |  |  |  | 
